Marks after values point to notes of the source that are not given here.
What was measured:
[1] = test system: HUVECs (Human umbilical vein endothelial cells); experiment: Inhibitory effects on HUVEC tube formation; type: cell-based; conditions: for inhibitory effect on HUVEC tube formation: 50 uM;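 on tube formation: from minus no inhibition up to plus-plus-plus complete inhibition versus vehicle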
Experimental: The Inhibitory effects of the compounds of the formula 1 on angiogenesis were meassured by the vascular tube formation assay of HUVECs (Human umbilical vein endothelial cells), which is one of the major angiogenic steps.
HUVECs were isolated from human umbilical vein, and cultured. HUVECs within passage 5 from confluent cultures were detached, and plated onto a layer of a bFGF (basic fibroblast growth factor)-reduced and polymerized Matrigel. Matrigel cultures were incubated with or without the compounds of formula 1, and the changes of cell morphology were captured through a phase contrast microscope and photographed.

A549 NSCLC = experiment: Inhibition on A549 NSCLC growth in nude mice xenografts; type: in vivo, nude mice (BALB/c nu/nu); conditions: for Inhibition (%) of tumor volume: 50 mg/Kg; for Tumor volume: 50 mg/Kg i.p. once daily day 1 to day 20
Experimental: Human tumor xenograft experiments were performed to evaluate whether the compounds of the formula 1 inhibit growth of human tumors implanted in nude mice.
(§1) Nude mice (BALB/c nu/nu, male) were purchased from Charls River Japan, Inc., and housed and treated under SPF (Special Pathogen Free) facilities according to the regulation of NIH (national institutes of health). A549 cells isolated from human non small cell lung cancer (NSCLC) were purchased from ATCC ([…], USA), and maintained as an exponentially growing monolayer in Korea Research Institute of Chemical Technology. Effects of the compounds of present invention on implanted tumor growth were measured by the comparison of tumor sizes, in addition, the changes of body weights and survival % of nude mice were observed.
Nude mice had been adjusted to the laboratory for 2-3 weeks after purchase, and all procedures were performed on male mice of 8 weeks of age, within a weight range of 18-20 g.
A549 tumor xenografts were established in the right flank of mice by subcutaneous injection of cells in 3×3×3 mm^3 size of culture. 24 hours after cell implantation, the administration of the compounds was started and which day is defined as day 1. Nude mice were injected intraperitoneally with the compound of example 23 (50 mg/kg) or vehicle (PBS containing 0.5% tween 80) once daily from day 1 to day 20. Tumor volume (V) was assessed by caliper measurement using the mathematical formula 1, where a was the longest diameter across the tumor and b was the corresponding perpendicular short diameter. Volume (mm^3)=a×b^2/2 [Mathematical Formula 1]
Inhibition (%) was calculated as (1−(VT)n/−(VC)n)×100, where (VT)n and (VC)n were the mean tumor volume of treated and control group at n days after administration of the compound. Each group consisted of 8 mice, and statistical significance was represented as student-T test (* p<0.05).

[2] = Changes of body weight in nude mice implanted A549; type: in vivo, nude mice (BALB/c nu/nu); conditions: 50 mg/Kg
Source text: as §1
The effects of the compounds of the formula 1 on changes of body weights were determined. Body weights of nude mice were measured using AND balance at 5 day intervals starting from the date of administration of compounds, and represented as a mean value of treated group […], respectively.

A549 implanted mice = experiment: Survival % in A549 implanted mice; type: in vivo; conditions: for Survival %: 50 mg/Kg
Source text: as §1
Survival percents were represented using following mathematical formula 2, where N0 is the number of mice at the first day of administration, and Nn is the number of mice at n days after administration. Survival %=Nn/N0×100 [Mathematical formula 2]

SPF SD rats = conditions: rat, in vivo, po;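 further: Six-week-old animals, two per group, followed across an observation period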
isolated rat aorta = experiment: Vasorelaxation effects on isolated blood vessels (methoxamine induced vasoconstriction); conditions: rat aorta constricted with methoxamine (3 μM)
Experimental: The following experiment was conducted to examine whether the compounds of the formula 1 have vasorelaxation effects.
Male Sprague-Dawly rats (350-450 g, obtained from the Experimental Animal Team of the Korea Research Institute of Chemical Technology) were knocked unconscious by hitting the occipital region, sacrificed by cervical dislocation, and underwent thoracotomy. After being quickly removed, the thoracic aorta was deprived of the adipose tissue and cut into aortic rings of 3 mm width. The aorta was lightly rubbed with a modified Krebs Henseleit buffer (Physiological Salt Solution, PSS) soaked cotton club to remove the inner epithelial layer therefrom. While being suspended in an organ bath containing a physiological buffer, the vascular tissue was allowed to equilibrate under a resting tension of 2 g and then, stand for 1 hour at 37° C. for stabilization with a supply of a carbogen consisting of 95% O2-5% CO2.
Thereafter, the vascular tissue was constricted with 10^−5 M phenylephrine and washed several times with PSS and this procedure was repeated again to ensure the stable reactivity of vascular smooth muscle to repetitive constriction/dilatation.
In addition, 3×10^−6 M methoxamine was used to induce an intensive constriction in the vascular smooth muscle. When the vasoconstriction induced by the methoxamine reached and maintained a maximum, test compounds and controls were cumulatively added to the organ baths in concentrations of 1, 3, 10 and 30 μM so as to induce vasodilatation. Cromakalim, BMS-180448, and BMS-191095 were used as the controls.
Following the addition of test compounds, the change in the maximal constriction induced by methoxamine was calculated to plot a concentration-relaxation response curve. Through a linear regression analysis, IC50, the drug concentration at which the vascular tissue is 50% dilated, was obtained for each compound.

Q: With COC(OC)[C@]1(C)Oc2ccc(N)cc2[C@H](N(Cc2ncc[nH]2)c2ccc(Cl)cc2)[C@H]1O [Example 23, (2R,3R,4S)-6-amino-3,4-dihydro-2-dimethoxymethyl-3-hydroxy-2-methyl-4-[N-(4-chlorophenyl)-N-(1H-imidazol-2-ylmethyl)amino]-2H-1-benzopyran] as the compound, how does the “inhibitory effect on HUVEC tube formation” value [1] read?
A: The value was “didn't show any tube like structures”.

Q: What about the Tube formation ([1]; 50 μM) of the same compound?
A: The Tube formation was “+++”.

Q: What about the “Inhibition (%) of tumor volume” value (A549 NSCLC; 25 days) of the same compound?
A: The value was “(40%)”.

Q: What about the Tumor volume (A549 NSCLC; 25 days) of the same compound?
A: Its Tumor volume is 92.2 mm^3.

Q: What about the “Inhibition (%) of tumor volume” value (A549 NSCLC; 35 days) of the same compound?
A: Its value is “(39%)”.

Q: And the Tumor volume (A549 NSCLC; 35 days)?
A: The Tumor volume was 186.8 mm^3.

Q: And the “Inhibition (%) of tumor volume” value (A549 NSCLC; 45 days)?
A: The value was “(50%)”.

Q: What about the Tumor volume (A549 NSCLC; 45 days) of the same compound?
A: Its Tumor volume is 244.3* mm^3.

Q: What about the “Inhibition (%) of tumor volume” value (A549 NSCLC; 65 days) of the same compound?
A: Its value is “(52%)”.

Q: What about the Tumor volume (A549 NSCLC; 65 days) of the same compound?
A: The Tumor volume was 494.8* mm^3.

Q: And the “Inhibition of A549 NSCLC growth” value (A549 NSCLC; from 45 days to 61 days after implantation)?
A: The value was 50-52%.

Q: And the “retardation or loss of body weight gain” value [2]?
A: Its value is “not observed”.

Q: And the Body weight ([2]; 1 day)?
A: The Body weight was 22.30 g.

Q: And the Body weight ([2]; 14 days)?
A: The Body weight was 25.42 g.

Q: What about the Body weight ([2]; 25 days) of the same compound?
A: The Body weight was 26.17 g.

Q: And the Body weight ([2]; 35 days)?
A: Its Body weight is 27.10 g.

Q: What about the Survival % (A549 implanted mice; 1 day) of the same compound?
A: The Survival % was 100%.

Q: What about the Survival % (A549 implanted mice; 5 days) of the same compound?
A: The Survival % was 100%.

Q: What about the Survival % (A549 implanted mice; 15 days) of the same compound?
A: The Survival % was 100%.

Q: And the Survival % (A549 implanted mice; 20 days)?
A: Its Survival % is 100%.

Q: What about the survival rate (A549 implanted mice; table 6) of the same compound?
A: Its survival rate is 100%.

Q: And the “clinical symptoms, body weight and mortality” value (“clinical symptoms” for short) (SPF SD rats)?
A: The value was “no significant changes”.

Q: For CC1(C)Oc2ccc(C#N)cc2C(N2CCCC2=O)C1O (centres unmarked) [Cromakalim], which IC50 (isolated rat aorta) is on record?
A: The IC50 was 67 nM.

Q: With COC(OC)[C@@]1(C)Oc2ccc(C#N)cc2[C@@H](N(Cc2ncc[nH]2)c2ccc(Cl)cc2)[C@@H]1O [Example 22, (2S,3S,4R)-6-cyano-3,4-dihydro-2-dimethoxymethyl-3-hydroxy-2-methyl-4-[N-(4-chlorophenyl)-N-(1H-imidazol-2-ylmethyl)amino]-2H-1-benzopyran] as the compound, how does the Tube formation ([1]; 10 μM) read?
A: Its Tube formation is “+”.

Q: What about the Tube formation ([1]; 100 μM) of the same compound?
A: Its Tube formation is “++”.

Q: And the “clinical symptoms” value (SPF SD rats)?
A: The value was “no significant changes”.

Q: For COc1ccc(N(Cc2ncc[nH]2)[C@H]2c3cc(N)ccc3O[C@@](C)(C(OC)OC)[C@@H]2O)cc1 [Example 28, (2R,3R,4S)-6-amino-3,4-dihydro-2-dimethoxymethyl-3-hydroxy-2-methyl-4-[N-(4-methoxyphenyl)-N-(1H-imidazol-2-ylmethyl)amino]-2H-1-benzopyran], which Tube formation ([1]; 50 μM) is on record?
A: Its Tube formation is “+”.

Q: What about the “clinical symptoms” value (SPF SD rats) of the same compound?
A: The value was “no significant changes”.

Q: What does the source list for COC(OC)[C@]1(C)Oc2ccc([N+](=O)[O-])cc2[C@H](N(Cc2ncc[nH]2)c2ccc(Cl)cc2)[C@H]1O [Example 3, (2R,3R,4S)-3,4-dihydro-2-dimethoxymethyl-3-hydroxy-2-methyl-6-nitro-4-[N-(4-chlorophenyl)-N-(1H-imidazol-2-ylmethyl)amino]-2H-1-benzopyran]?
A: inhibitory effect on HUVEC tube formation [1]: strongly inhibited; Tube formation ([1]; 50 μM): ++; clinical symptoms, body weight and mortality (SPF SD rats): no significant changes

Q: With CC1(C)Oc2ccc(C#N)cc2C(N(Cc2ncc[nH]2)c2ccc(Cl)cc2)[C@H]1O (some centres unmarked) [BMS-191095] as the compound, how does the IC50 (isolated rat aorta) read?
A: Its IC50 is 2140 nM.

Q: Which Tube formation ([1]; 50 μM) does the source give for COC(OC)[C@]1(C)Oc2ccc([N+](=O)[O-])cc2[C@H](N(Cc2ncc[nH]2)c2cccc(C)c2C)[C@H]1O [Example 12, (2R,3R,4S)-3,4-dihydro-2-dimethoxymethyl-3-hydroxy-2-methyl-6-nitro-4-[N-(2,3-dimethylphenyl)-N-(1H-imidazol-2-ylmethyl)amino]-2H-1-benzopyran] here?
A: The Tube formation was “+”.

Q: What about the “clinical symptoms” value (SPF SD rats) of the same compound?
A: Its value is “no significant changes”.

Q: Which Tube formation ([1]; 50 μM) does the source give for COC(OC)[C@]1(C)Oc2ccc(N)cc2[C@H](N(Cc2ncc[nH]2)c2ccc(Br)cc2)[C@H]1O [Example 29, (2R,3R,4S)-6-amino-3,4-dihydro-2-dimethoxymethyl-3-hydroxy-2-methyl-4-[N-(4-bromophenyl)-N-(1H-imidazol-2-ylmethyl)amino]-2H-1-benzopyran] here?
A: The Tube formation was “+”.

Q: And the “clinical symptoms” value (SPF SD rats)?
A: Its value is “no significant changes”.

Q: For COC(OC)[C@]1(C)Oc2ccc(N)cc2[C@H](N(Cc2ncc[nH]2)c2cccc(C)c2C)[C@H]1O [Example 27, (2R,3R,4S)-6-amino-3,4-dihydro-2-dimethoxymethyl-3-hydroxy-2-methyl-4-[N-(2,3-dimethylphenyl)-N-(1H-imidazol-2-ylmethyl)amino]-2H-1-benzopyran], which Tube formation ([1]; 50 μM) is on record?
A: The Tube formation was “+/−”.

Q: What about the “clinical symptoms” value (SPF SD rats) of the same compound?
A: The value was “no significant changes”.

Q: Which “inhibitory effect on HUVEC tube formation” value [1] does the source give for COC(OC)[C@@]1(C)Oc2ccc([N+](=O)[O-])cc2[C@@H](N(Cc2ncc[nH]2)c2ccc(C(F)(F)F)cc2)[C@@H]1O [Example 5, (2S,3S,4R)-3,4-dihydro-2-dimethoxymethyl-3-hydroxy-2-methyl-6-nitro-4-[N-(4-trifluoromethylphenyl)-N-(1H-imidazol-2-ylmethyl)amino]-2H-1-benzopyran] here?
A: The value was “strongly inhibited”.

Q: What about the Tube formation ([1]; 50 μM) of the same compound?
A: The Tube formation was “++”.

Q: And the “clinical symptoms” value (SPF SD rats)?
A: The value was “no significant changes”.
